Counter-ions that a name gives are not always drawn. Like-named read-outs stand apart in the source and are kept apart here. One block for each compound: values may come before it.
Assays:
[1] = tested on: transgenic mouse models of AD, and mouse and rat models of neurodegeneration or brain injury; conditions: in vivo; cited from earlier work
[2] = tested on: neuronal insulin resistance; conditions: cited from earlier work
[3] = tested on: cell death due to glucose deprivation; conditions: cited from earlier work
[4] = tested on: diabetic patients with AD or mild cognitive impairment; conditions: placebo-controlled clinical trials; cited from earlier work
rat brain = assay: Rat BOLD fMRI study of resting state functional connectivity; assay type: in vivo
Description: BOLD fMRI was used to measure drug-related changes in resting state functional connectivity across the whole brain.
Adult male Wistar rats (275±25 g) were housed separately and maintained on a 12-h light, 12-h dark schedule. Food and water was provided ad libitum. Animals were cared for in accordance with the guidelines published in the Guide for the Care and Use of Laboratory Animals (National Institutes of Health Publications No. 85-23, Revised 1985). Animal body weights were measured approximately 24 hours before Day −3, and on Study Days 3 and 6.
Pioglitazone HCl (PIO) was dissolved in 0.5 mol/L citric acid (CA) to yield a stock solution at a concentration of 0.32 mg/10 mL/kg. Other dosages were prepared by appropriate dilution of the stock solution with 0.5 mol/L CA to yield dose volumes of 10 mL/kg. Control rats received the vehicle at 10 mL/kg. Dose concentrations were based on the weight of the test article as supplied (i.e., as the HCl salt), with the dose adjusted to the most recent body weight of the animal. Daily dosing with PIO in solution was by oral gavage at approximately the same time every day. Animals were anesthetized lightly with isoflurane immediately beforehand to facilitate dosing.
All animals used in the imaging studies were acclimated to the MRI holding device by being placed in it for 15-90 minutes daily for at least 7 days, as previously described (Zhang et al. 2010 J Neurosci Methods 189: 186-196; Liang et al. 2011 J Neurosci 31: 3776-3783).
After the acclimation period, animals were assigned to 1 of 7 treatment arms matched for mean body weights (see Table 1). Dosing occurred once daily, at approximately the same time every day. All animals were imaged at Baseline (Study Day −3), approximately 2.5 to 3 h after dosing with vehicle. Dosing began 3 days later (Study Day 1). On this day, all animals were administered either vehicle (CA) or PIO depending on their group assignment. On Study Day 2, one vehicle group and one group treated with PIO at 0.08 mg/kg/day (Acute Arm) were imaged approximately 2.5 to 3 h after dosing. For all groups, dosing continued for seven days total. On Study Day 7, all rats were imaged approximately 2.5 to 3 h after administration of the final dose.
Animal preparation activities related to imaging were initiated to insure that the imaging itself occurred approximately 2.5 to 3 h after dosing. The animals were prepared for positioning in the restraint under isoflurane anesthesia as previously described (Zhang et al. 2010, supra). […] Imaging was conducted on awake animals.
All MR experiments were conducted using a 4.7 T/40 cm horizontal magnet (Oxford, UK) interfaced with a BiospecBruker console (Bruker, Germany) and equipped with a 20 G/cm magnetic field gradient. A dual ^1H radiofrequency (RF) coil configuration (Insight Neurolmaging Systems, Worcester, Mass.) consisting of a volume coil for exciting the water proton spins and a surface coil for receiving MRI signal was used; the volume and surface coils were actively tuned and detuned to prevent mutual coil coupling. This dual-coil configuration allowed for sufficient RF field homogeneity in the rat brain for RF transmission, while preserving the advantage of higher signal-to-noise ratio (SNR) provided by the smaller reception coil.
Anatomical images were acquired first using a multi-slice fast spin-echo sequence (RARE) with the parameters: repetition time (TR)=2125 ms; RARE factor=8; effective echo time (TE)=50 ms; matrix size=256×256; field of view (FOV)=3.2×3.2 cm^2; slice number=18; slice thickness=1 mm; n=8.

in vivo = conditions: rat
From the text: (§1) Extrapolation to the corresponding dosage in humans was achieved while adjusting for the relative AUC for each.

[5] = Human exposure (AUC) used for dose extrapolation; conditions: in vivo, humans, dose of 7.5 mg
From the text: as §1

brain concentration (0.5 mg dose): approximately 6.7 nM
serum concentration (0.5 mg dose): approximately 33.3 nM
brain concentration (1.5 mg dose): approximately 20 nM
serum concentration (1.5 mg dose): approximately 100 nM
brain concentration (4.5 mg dose): approximately 50 nM
serum concentration (4.5 mg dose): approximately 300 nM
brain concentration (9 mg dose): approximately 120 nM
serum concentration (9 mg dose): approximately 600 nM
Structure (SMILES): CCc1ccc(CCOc2ccc(CC3SC(=O)NC3=O)cc2)nc1 (stereo not shown) [pioglitazone, Pioglitazone]
reported effects in animal models (amyloid plaque burden, brain glucose utilization, inflammation, oxidative stress, memory and learning deficits, neurogenesis) [1]: Beneficial effects
neuronal insulin resistance [2]: improves neuronal insulin resistance
concentration that significantly reduces cell death due to glucose deprivation [3]: ≥ 1 nM
expression of NRF1, TFAM1 and UCP-2 [3]: increases expression
cognition [4]: improved
hyperinsulinemia [4]: improved
regional cerebral blood flow [4]: improved regional cerebral blood flow
change in metabolism in the central region of the deep cortical structures of the brain (fMRI) (rat brain; even the lowest doses, orally-administered, immediate release): produce a change in metabolism

AUC (in vivo; Wistar, po, 0.04 mg/kg/day): 570 ng·h/mL
AUC (in vivo; Wistar, po, 0.08 mg/kg/day): 1140 ng·h/mL
AUC (in vivo; Wistar, po, 0.16 mg/kg/day): 2280 ng·h/mL
AUC (in vivo; Wistar, po, 0.32 mg/kg/day): 4550 ng·h/mL
AUC (in vivo; 0.5 mg/kg/day): 7110 ng·h/mL
AUC [5]: 2800 ng·h/mL
blood brain barrier penetration (rat brain; low-dose PIO, administered orally, concluded from fMRI changes): penetrates the blood brain barrier
Structure (SMILES): CCc1ccc(CCOc2ccc(CC3SC(=O)NC3=O)cc2)nc1 (stereo not shown) [PIO, Pioglitazone HCl]
time at which functional changes were induced (rat brain; 0.08 mg/kg/day, earliest time point assayed after initiation of treatment): ≤ 24 h
fMRI signal relative to lower dosages (rat brain; 0.32 mg/kg/day, appearance in FIG. 1, to be confirmed): diminished signal
dose that induced functional changes at earliest time point (rat brain; 24 hours after initiation of treatment): ≥ 0.08 mg/kg/day
dose that induces change in metabolism in deep subcortical structure of the rat brain (fMRI) (rat brain; group-averaged fMRI signal, treatment day 7, relative to vehicle control): ≥ 0.04 mg/kg/day
dose that induces changes in multiple brain regions (rat brain; oral, relative to vehicle control): ≥ 0.04 mg/kg/day
